Experimental data reported in patent publication US20220281876A1, “DEGRADATION OF BRUTON'S TYROSINE KINASE (BTK) BY CONJUGATION OF BTK INHIBITORS WITH E3 LIGASE LIGAND AND METHODS OF USE” (BEIGENE, LTD., priority 2019, published 2022).

Each molecule was assayed against T1, BTK (Homo sapiens, UniProt Q06187) (assay: BTK cell degradation in Ramos cells (total BTK ELISA)). Settings: 16 h incubation, FastScan total BTK ELISA.
T1 construct: endogenous in cells; host or cells: Ramos cells
T1 sequence (Q06187 whole entry): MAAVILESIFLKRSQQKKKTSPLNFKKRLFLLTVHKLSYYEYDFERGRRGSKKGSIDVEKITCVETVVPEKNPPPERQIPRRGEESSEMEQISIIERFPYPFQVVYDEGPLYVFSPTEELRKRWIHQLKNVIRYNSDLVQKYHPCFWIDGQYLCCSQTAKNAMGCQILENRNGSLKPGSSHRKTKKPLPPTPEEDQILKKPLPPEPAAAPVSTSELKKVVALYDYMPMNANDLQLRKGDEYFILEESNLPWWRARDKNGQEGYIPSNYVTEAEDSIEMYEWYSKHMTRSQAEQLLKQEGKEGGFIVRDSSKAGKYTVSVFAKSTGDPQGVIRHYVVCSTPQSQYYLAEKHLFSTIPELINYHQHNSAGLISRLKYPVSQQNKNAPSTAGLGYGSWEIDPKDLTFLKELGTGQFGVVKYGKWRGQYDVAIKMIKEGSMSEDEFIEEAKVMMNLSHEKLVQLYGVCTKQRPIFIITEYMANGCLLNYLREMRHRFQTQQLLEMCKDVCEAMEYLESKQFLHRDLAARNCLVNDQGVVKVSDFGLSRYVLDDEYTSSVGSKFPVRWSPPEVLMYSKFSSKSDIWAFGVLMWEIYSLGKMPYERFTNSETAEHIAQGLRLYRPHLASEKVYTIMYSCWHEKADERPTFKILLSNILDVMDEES
Type: cell-based
Description: Ramos cells are treated with compounds diluted in 0.1% DMSO, dilution is done according to the following protocol: (1) make 1000x stock solution in DMSO from 10 mM by 5-fold dilution, total 7 doses were included; (2) make 10x solution in cell culture medium by transferring 1 ul 1000x stock solution into 99 ul medium; (3) 11 ul of 10× solution is added to cells and incubate for 16 h.
Cells in 96 well plate are harvested by centrifugation (1200 rpm), and wash once with ice-cold PBS. Then, 100 ul 1×cell extraction buffer is added in each well. The cells are placed on a shaker for 20 min at 4° C.; 5 ul lysate is transferred to 45 ul of 1×cell extraction buffer in ELISA plate, and 50 ul of the antibody cocktail is added in each well; seal the plate and incubate 1 hour at room temperature on a plate shaker; medium is discarded from the plate, tap the plated on a paper towel, wash 3×200 ul ELISA wash buffer; add 100 ul of TMB to each well and incubate the plate in the dark for 15 min at room temperature on a shaker; add 100 ul of STOP solution to each well; read absorbance at 450 nm. The BTK ELISA assay was performed using FastScan total BTK ELISA kit (Cell Signaling Cat #36609).
`NC(=O)c1c(-c2ccc(Oc3ccccc3)cc2)nn2c1NCC[C@H]2C1CCN(C(=O)c2cn(CCOCCOCCNc3ccc4c(c3)C(=O)N(C3CCC(=O)NC3=O)C4=O)nn2)CC1` (stereo partly drawn) [Example 7, (7S)-7-(1-(1-(2-(2-(2-((2-(2,6-dioxopiperidin-3-yl)-1,3-dioxoisoindolin-5-yl)amino)ethoxy)ethoxy)ethyl)-1H-1,2,3-triazole-4-carbonyl)piperidin-4-yl)-2-(4-phenoxyphenyl)-4,5,6,7-tetrahydropyrazolo[1,5-a]pyrimidine-3-carboxamide] gave a DC50 of over 10000 nM. `CN(C/C=C/C(=O)N1CCC([C@@H]2CCNc3c(C(N)=O)c(-c4ccc(Oc5ccccc5)cc4)nn32)CC1)CCOCCOCCOCCN1C(=O)CCC(N2Cc3c(N)cccc3C2=O)C1=O` (stereo partly drawn) [Example 52, (7S)-7-(1-((E)-1-(3-(4-amino-1-oxoisoindolin-2-yl)-2,6-dioxopiperidin-1-yl)-12-methyl-3,6,9-trioxa-12-azahexadec-14-en-16-oyl)piperidin-4-yl)-2-(4-phenoxyphenyl)-4,5,6,7-tetrahydropyrazolo[1,5-a]pyrimidine-3-carboxamide] was tested, and the DC50 was 144 nM. Work on `CN(C/C=C/C(=O)N1CCC([C@@H]2CCNc3c(C(N)=O)c(-c4ccc(Oc5ccccc5)cc4)nn32)CC1)CCCCCCN1C(=O)CCC(N2C(=O)c3cccc(N)c3C2=O)C1=O` (stereo partly drawn) [Example 50, (7S)-7-(1-((E)-4-((6-(3-(4-amino-1,3-dioxoisoindolin-2-yl)-2,6-dioxopiperidin-1-yl)hexyl)(methyl)amino)but-2-enoyl)piperidin-4-yl)-2-(4-phenoxyphenyl)-4,5,6,7-tetrahydropyrazolo[1,5-a]pyrimidine-3-carboxamide] yielded a DC50 of over 10000 nM. With `NC(=O)c1c(-c2ccc(Oc3ccccc3)cc2)nn2c1NCC[C@H]2C1CCN(C(=O)c2cn(CCOCCOCCNc3cccc4c3C(=O)N(C3CCC(=O)NC3=O)C4=O)nn2)CC1` (stereo partly drawn) [Example 3, (7S)-7-(1-(1-(2-(2-(2-((2-(2,6-dioxopiperidin-3-yl)-1,3-dioxoisoindolin-4-yl)amino)ethoxy)ethoxy)ethyl)-1H-1,2,3-triazole-4-carbonyl)piperidin-4-yl)-2-(4-phenoxyphenyl)-4,5,6,7-tetrahydropyrazolo[1,5-a]pyrimidine-3-carboxamide] the DC50 was over 10000 nM. Work on `NC(=O)c1c(-c2ccc(Oc3ccccc3)cc2)nn2c1NCC[C@H]2C1CCN(C(=O)c2cn(CCOCCOCCOCC#Cc3cccc4c3CN(C3CCC(=O)NC3=O)C4=O)nn2)CC1` (stereo partly drawn) [Example 9, (7S)-7-(1-(1-(2-(2-(2-((3-(2-(2,6-dioxopiperidin-3-yl)-1-oxoisoindolin-4-yl)prop-2-yn-1-yl)oxy)ethoxy)ethoxy)ethyl)-1H-1,2,3-triazole-4-carbonyl)piperidin-4-yl)-2-(4-phenoxyphenyl)-4,5,6,7-tetrahydropyrazolo[1,5-a]pyrimidine-3-carboxamide] yielded a DC50 of over 10000 nM. With `NC(=O)c1c(-c2ccc(Oc3ccccc3)cc2)nn2c1NCC[C@H]2C1CCN(C(=O)CCCC2CCC(N3CCN(c4ccc5c(c4)C(=O)N(C4CCC(=O)NC4=O)C5=O)CC3)CC2)CC1` (stereo partly drawn) [Example 148, (7S)-7-(1-(4-(4-(4-(2-(2,6-dioxopiperidin-3-yl)-1,3-dioxoisoindolin-5-yl)piperazin-1-yl)cyclohexyl)butanoyl)piperidin-4-yl)-2-(4-phenoxyphenyl)-4,5,6,7-tetrahydropyrazolo[1,5-a]pyrimidine-3-carboxamide] the DC50 was 205 nM. `NC(=O)c1c(-c2ccc(Oc3ccccc3)cc2)nn2c1NCC[C@H]2C1CCN(C(=O)COCCCCCCCCNC(=O)COc2cccc3c2CN(C2CCC(=O)NC2=O)C3=O)CC1` (stereo partly drawn) [Example 25, (7S)-7-(1-(2-((8-(2-((2-(2,6-dioxopiperidin-3-yl)-1-oxoisoindolin-4-yl)oxy)acetamido)octyl)oxy)acetyl)piperidin-4-yl)-2-(4-phenoxyphenyl)-4,5,6,7-tetrahydropyrazolo[1,5-a] pyrimidine-3-carboxamide] showed a DC50 of over 10000 nM. In the case of `NC(=O)c1c(-c2ccc(Oc3ccccc3)cc2)nn2c1NCC[C@H]2C1CCN(C(=O)c2cn(CCOCCOCCOCCOCCOCCNc3ccc4c(c3)C(=O)N(C3CCC(=O)NC3=O)C4=O)nn2)CC1` (stereo partly drawn) [Example 14, (7S)-7-(1-(1-(17-((2-(2,6-dioxopiperidin-3-yl)-1,3-dioxoisoindolin-5-yl)amino)-3,6,9, 12, 15-pentaoxaheptadecyl)-1H-1,2,3-triazole-4-carbonyl)piperidin-4-yl)-2-(4-phenoxyphenyl)-4,5,6,7-tetrahydropyrazolo[1,5-a]pyrimidine-3-carboxamide], the DC50 is reported as 78 nM. With `NC(=O)c1c(-c2ccc(Oc3ccccc3)cc2)nn2c1NCC[C@H]2C1CCN(C(=O)COCCOCCNC(=O)CCCN2CCN(c3ccc4c(c3)C(=O)N(C3CCC(=O)NC3=O)C4=O)CC2)CC1` (stereo partly drawn) [Example 42, (7S)-7-(1-(2-(2-(2-(4-(4-(2-(2,6-dioxopiperidin-3-yl)-1,3-dioxoisoindolin-5-yl)piperazin-1-yl)butanamido)ethoxy)ethoxy)acetyl)piperidin-4-yl)-2-(4-phenoxyphenyl)-4,5,6,7-tetrahydropyrazolo[1,5-a]pyrimidine-3-carboxamide] the DC50 was 624 nM. `CN(CCOCCNc1cccc2c1C(=O)N(C1CCC(=O)NC1=O)C2=O)CCC(=O)N1CCC([C@@H]2CCNc3c(C(N)=O)c(-c4ccc(Oc5ccccc5)cc4)nn32)CC1` (stereo partly drawn) [Example 37, (7S)-7-(1-(3-((2-(2-((2-(2,6-dioxopiperidin-3-yl)-1,3-dioxoisoindolin-4-yl)amino)ethoxy)ethyl)(methyl)amino)propanoyl)piperidin-4-yl)-2-(4-phenoxyphenyl)-4,5,6,7-tetrahydropyrazolo[1,5-a]pyrimidine-3-carboxamide] showed a DC50 of 120 nM. For `NC(=O)c1c(-c2ccc(Oc3ccccc3)cc2)nn2c1NCC[C@H]2C1CCN(C(=O)c2cn(CCOCCOCCCc3cccc4c3CN(C3CCC(=O)NC3=O)C4=O)nn2)CC1` (stereo partly drawn) [Example 5, (7S)-7-(1-(1-(2-(2-(3-(2-(2,6-dioxopiperidin-3-yl)-1-oxoisoindolin-4-yl)propoxy)ethoxy)ethyl)-1H-1,2,3-triazole-4-carbonyl)piperidin-4-yl)-2-(4-phenoxyphenyl)-4,5,6,7-tetrahydropyrazolo[1,5-a]pyrimidine-3-carboxamide], the DC50 was over 10000 nM. With `NC(=O)c1c(-c2ccc(Oc3ccccc3)cc2)nn2c1NCC[C@H]2C1CCN(C(=O)CCCc2cn(CCOCCOCCNc3cccc4c3C(=O)N(C3CCC(=O)NC3=O)C4=O)nn2)CC1` (stereo partly drawn) [Example 20, (7S)-7-(1-(4-(1-(2-(2-(2-((2-(2,6-dioxopiperidin-3-yl)-1,3-dioxoisoindolin-4-yl)amino)ethoxy)ethoxy)ethyl)-1H-1,2,3-triazol-4-yl)butanoyl)piperidin-4-yl)-2-(4-phenoxyphenyl)-4,5,6,7-tetrahydropyrazolo[1,5-a]pyrimidine-3-carboxamide] the DC50 was over 10000 nM. For `NC(=O)c1c(-c2ccc(Oc3ccccc3)cc2)nn2c1NCC[C@H]2C1CCN(C(=O)COCCOCCOCCOCCNc2cccc3c2C(=O)N(C2CCC(=O)NC2=O)C3=O)CC1` (stereo partly drawn) [Example 27, (7S)-7-(1-(14-((2-(2,6-dioxopiperidin-3-yl)-1,3-dioxoisoindolin-4-yl)amino)-3,6,9, 12-tetraoxatetradecanoyl)piperidin-4-yl)-2-(4-phenoxyphenyl)-4,5,6,7-tetrahydropyrazolo[1,5-a]pyrimidine-3-carboxamide], the DC50 was over 10000 nM.
